Experimental data published in patent publication US7033597B2, “Intracellular delivery of biological effectors” (Université de Lausanne, priority 2000, dated 2006).
Where no end group is shown, it is not given here.

Assays:
Format in all cases: cell-based
[1] = test system: βTC-3 cell line; experiment: Panning of phage display library on βTC-3 cells, occurrence of recovered phages
Experimental: (§1) A library of 3×10^8 independent phages displaying random 15-mer epitopes at the surface of the capsids was generated using standard procedures (e.g., in T7 415 or the T7 413b phage, Novagen). See Smith and Scott, Methods Enzymol. 217:228 (1993). Phages were amplified then purified by polyethylene glycol (PEG) precipitation and finally resuspended at a concentration of 10^10 infective particles per μl in Tris-EDTA buffer (10:1 mM, TE) as described (by Smith and Scott, supra). Phages (10^12) were added to cells in culture medium for 1 to 24 hours. Longer incubation times were preferred to favor isolation of phages that escaped proteolytic degradation in endocytotic vesicles. Following binding and internalization, cells were washed and non-internalized phages were destroyed by digestion with subtilisin (3 mg/ml) (44). Following extensive washing, internalized phages were then recovered by lysing cells in a buffer containing 2% deoxycholate, 10 mM Tris-HC1 and 2mM EDTA, pH 8.0. Recovered phages were finally amplified in E. coli cells (XL-1-Blue) and purified as described above. This preparation of selected phages was then used for a second round of panning. Three to five sequential rounds were performed to obtain enrichment of specific phage-bearing peptide sequences.
The pancreatic β-cell line βTC-3 was panned with the phage display library mentioned herein. […] Panning experiments using βTC-3 cells were performed with 10^9 phages used at each step of the enrichment procedure. The number of phages recovered at 0 ° C.
The occurrence of phages recovered after three steps of panning in the βTC-3 cell line is seen in Table 2.

[2] = test system: βTC-3 cells; experiment: Titration of phage P1 incubated with βTC-3 cells
Experimental: as §1
The ratio of input/recovered phages is also shown.

[3] = test system: HepG2; experiment: Specificity of phage uptake, internalized and recovered phages; conditions: 10^8 phages incubated 16 hours
Experimental: as §1
(§2) Determination of the specificity of uptake was performed by titrating the number of recovered phages in 5 different cell lines.

[4] = test system: βTC-3; experiment: as above
Experimental: as §1, §2

[5] = test system: WiDr; experiment: as above; conditions: 10^8 phages incubated 16 hours
Experimental: as §1, §2

[6] = test system: HeLa; experiment: as above; conditions: 10^8 phages incubated 16 hours
Experimental: as §1, §2

[7] = test system: A549; experiment: as above; conditions: 10^8 phages incubated 16 hours
Experimental: as §1, §2

[8] = test system: 5 different cell lines; experiment: Specificity of phage uptake across the cell lines; conditions: βTC-3 vs HeLa, WiDr, HepG2, A549
Experimental: as §1, with “sequences. […]” for “sequences.”

[9] = test system: βTC-3 cells; experiment: Immunocytochemistry and fluorescence studies of oximes; conditions: fluorescence studies
Experimental: Single phages isolated according to the enrichment scheme above were amplified. The phage peptides and one of oximes 1–6 were added and incubated for 24 hours with cells in culture medium. Medium was then washed off and cells fixed in cold methanol-acetone (1:1) for 5 minutes. Antibodies directed against the phage capsid or against biotin (peptides) were used with a fluorescein-conjugated (phage) or Texas Red labeled (peptides) secondary antibody. Classical fluorescence microscopic studies and confocal microscopic assays were performed.
Oximes 1–3 were first tested for their entry into βTC-3 cells. […] The superiority of oxime 3 may be due to the flexibility of the PEG spacer, which increases binding to the receptors on the cells.
Oximes 4–6, which are similar to oxime 3, were then synthesized and assayed for binding avidity and entry efficiency.

## RRPK [Oxime P66]
[1]
  occurrence of phages recovered after three steps of panning: 5.5%

## RRTK [Oxime P1]
[1]
  occurrence of phages recovered after three steps of panning: 61%
[2]; incubation 1 h
  % Recovered: 0.01%
[2]; titration experiments
  initial phage input recovered: ≤ 10%
[3]
  Phages recovered: <10
[4]; phage experiments, βTC-3 cells
  efficiency of internalization: low
  uptake by cells: taken up specifically by βTC-3 cells via receptor-mediated endocytosis
[4]; βTC-3, 10^8 phages incubated 16 hours
  Phages recovered: 1 × 10^7
[5]
  Phages recovered: 2 × 10^2
[6]
  Phages recovered: <1 × 10^2
[7]
  Phages recovered: 10^3
[8]
  uptake by βTC-3 cells relative to any other cell line tested: 10,000 to 1,000,000 fold

## Oxime 3: tetraoxime with four copies of RRTK, two-unit PEG spacer between peptide and core 1, FITC reporter (RRTK-OH; not fully specified (N-terminus, bridges); also: tetraoxime: four RRTK copies joined by thioether to Cys of branched trilysine core 1, core carries aminooxyacetyl-Lys(FITC) via oxime bond)
[9]
  binding to receptors on the cell surface: clearly bound to the receptors on the surface of βTC-3 cells

## RKLR [Oxime P6]
[1]
  occurrence of phages recovered after three steps of panning: 17%
